Assays:
[1] = test system: HO-1 protein; assay: ELISA of intracellular HO-1 protein in MSC; type: cell-based, human
Procedure: After the treatments of DNIC–COOH/DNIC–COOMe to the MSC cells following the procedure described above, the intracellular level of HO-1 protein in DNIC-treated MSC cells was also determined by ELISA (Abcam, Cambridge, MA) according to the manufacturers’ protocols.

[2] = test system: MSC; assay: Survival of MSC under oxygen–glucose-deprived (OGD) condition; type: cell-based, human; conditions: MSC pretreated with DNIC, glucose-free DMEM, 1% oxygen, 48 h
Procedure: Cell viability study of MSC, N2a, and HCEC cells with or without the treatment of DNIC–COOH was performed using a Cell Counting Kit-8 (IMT Formosa New Materials Co., Ltd., Taiwan) according to the manufacturer’s protocol. Briefly, cells were seeded into a 96-well plate at a density of 4 × 10^3 cells/well for MSC, 1 × 10^4 cells/well for N2a, and 8 × 10^3 cells/well for HCEC, respectively, and incubated overnight. On the next day, cells were treated with DNIC–COOH at different concentrations and incubated for 24 h. The culture medium was then removed before the cells were washed with DPBS. After addition of fresh medium containing CCK-8 solution to the cells and incubation for 1–3 h, the absorbance at 450 nm was then measured on a microplate reader (SpectraMax iD3, Molecular Devices, San Jose, CA) with a reference wavelength of 650 nm. Three independent experiments were executed, and the results were represented as mean ± SEM% (n = 3) with the untreated cells (control) as 100% viability. […]
To simulate the microenvironment of ischemic tissues, the MSC cells with or without DNIC priming were cultured using glucose-free DMEM in a humidified hypoxia incubator (1% oxygen; Heracell VIOS 160i, Thermo Fisher Scientific) for 48 h. Cell viability was assessed by live/dead staining or CCK-8 assay.

[3] = molecular target: T1, BSA (Bos taurus, UniProt P02769); assay: Formation and degradation of albumin-bound DNIC in cell culturing media with FBS (EPR); type: in vitro ADME, bovine
T1 construct: 2 mL of αMEM with the presence of 20% FBS; from tissue; host or cells: fetal bovine serum (FBS) in αMEM / MEM / HSFM culture media
T1 sequence (P02769 25-607): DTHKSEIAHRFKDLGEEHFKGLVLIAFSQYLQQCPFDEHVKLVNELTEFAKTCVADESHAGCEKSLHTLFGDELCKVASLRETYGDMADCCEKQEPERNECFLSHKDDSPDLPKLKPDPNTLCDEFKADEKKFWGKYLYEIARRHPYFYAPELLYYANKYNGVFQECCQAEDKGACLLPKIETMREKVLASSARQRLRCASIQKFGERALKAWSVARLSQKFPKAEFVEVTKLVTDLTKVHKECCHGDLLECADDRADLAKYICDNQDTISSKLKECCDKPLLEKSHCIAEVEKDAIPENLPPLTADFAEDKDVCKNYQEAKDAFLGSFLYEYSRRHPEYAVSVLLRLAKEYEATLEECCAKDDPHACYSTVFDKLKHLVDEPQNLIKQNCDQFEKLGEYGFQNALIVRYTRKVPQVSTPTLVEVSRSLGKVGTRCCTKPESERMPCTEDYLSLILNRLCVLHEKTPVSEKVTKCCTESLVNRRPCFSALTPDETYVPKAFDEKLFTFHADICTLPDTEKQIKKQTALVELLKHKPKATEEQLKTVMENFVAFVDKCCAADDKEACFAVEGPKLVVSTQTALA
Procedure: 50 μM of DNIC–COOH was prepared via addition of 1 μL of 100 mM stock solution of DNIC–COOH in DMSO to 2 mL of αMEM with the presence of 20% FBS. After this solution was incubated at 37 °C for 0, 0.5, 1, 2, 3, 4, 8, and 24 h, respectively, EPR spectra of 100 μL aliquots of this solution were measured. Moreover, double integration of the EPR signal was executed to obtain the integrated EPR signal intensity under each condition, which was further utilized to characterize the time-dependent formation and degradation of BSA-bound DNIC. EPR investigations on the formation and degradation of protein-bound DNICs upon incubation of (1) 50 μM DNIC–COOMe in αMEM with the presence of 20% FBS, (2) 50 μM DNIC–COOH (or DNIC–COOMe) in MEM with the presence of 5% FBS, and (3) 50 μM DNIC–COOH (or DNIC–COOMe) in HSFM with the presence of 2% FBS were performed in a similar manner. In addition, EPR spectra for 50 μM of DNIC–COOH (or 50 μM of DNIC–COOMe) in αMEM, MEM, and HSFM, respectively, were also measured.

[4] = test system: MSC/N2a/HCEC; assay: Whole-cell EPR, results stated jointly for MSC/N2a/HCEC; type: cell-based; conditions: for tmax for cellular uptake: stated jointly for MSC/N2a/HCEC
Procedure: Cellular uptake of DNIC–COOH and intracellular formation/decomposition of mononuclear DNICs in MSC/N2a/HCEC cells were investigated using EPR spectroscopy. Briefly, cells were seeded into two (or one) 100 mm dish(es) at a density of 2 × 10^6 cells/dish and incubated at 37 °C overnight. On the next day, cells were treated with 100 μM of DNIC–COOH (or 100 μM of DNIC–COOH to N2a and 75 μM of DNIC–COOH to HCEC) and incubated for 0, 0.5, 1, 2, 3, 4, 8, and 24 h, respectively. After removal of the supernatant solution, cells were washed with DPBS before addition of 1 mL of trypsin (0.05%)/EDTA (0.53 mM) and incubation for 5 min at 37 °C. After the obtained cell suspension solutions from two 100 mm dishes were combined and centrifuged at 100g for 5 min, the supernatant was removed before addition of 100 μL of αMEM to DNIC-treated MSC (or MEM to DNIC-treated N2a and HSFM to DNIC-treated HCEC). This solution was then transferred into EPR quartz tube and frozen in N2(l) before the EPR measurements. For each measured EPR spectrum, double integration was executed to obtain the integrated EPR intensity under each condition. Moreover, time-dependent decay of integrated EPR signal intensity after treatment of DNIC–COOH was fit to pseudo-first-order kinetics in order to determine the intracellular half-life for EPR-active mononuclear DNIC. Three independent experiments were executed to measure the average half-life for intracellular decomposition of EPR-active mononuclear DNIC after treatment with DNIC–COOH at 37 °C. On the other hand, at the time point with maximum integrated EPR signal intensity, spin quantitation of intracellular EPR-active DNICs was performed using mononuclear DNIC [PPN][(NO)2Fe(S5)] as a standard according to the methodology used in the previous work.[50] Cellular uptake of DNIC–COOMe (2.5 μM to MSC, 10 μM to N2a, or 1 μM to HCEC) and intracellular formation/decomposition of EPR-active mononuclear DNICs were investigated using EPR spectroscopy in a similar manner. […]

Compound | expression of HO-1 protein ([1]; at 8 h, 100 μM DNIC–COOH) | cell viability under OGD condition [2] | binding to BSA yielding albumin-bound DNIC [3] | tmax for cellular uptake [4] | expression of HO-1 protein ([1]; at 6 h, 2.5 μM DNIC–COOMe) | tmax for intracellular assembly of mononuclear DNICs ([4]; MSC/N2a/HCEC, hypoxia)
O=[N][Fe]1([N]=O)[SH](CCC(=O)O)[Fe]([N]=O)([N]=O)[SH]1CCC(=O)O (stereo not drawn) [DNIC–COOH, [(NO)2Fe(μ-SCH2CH2COOH)2Fe(NO)2]] | 32.0 ± 4.4 fold | increase in the number of viable cells | slow binding | 120 to 480 min |  | 
COC(=O)CC[SH]1[Fe]([N]=O)([N]=O)[SH](CCC(=O)OC)[Fe]1([N]=O)[N]=O (stereo not drawn) [DNIC–COOMe, [(NO)2Fe(μ-SCH2CH2COOCH3)2Fe(NO)2]] |  | comparable to that of OGD group | rapid binding | 30 min | 8.1 ± 0.9 fold | 30 min

— PMC11040670, “Mechanistic and Kinetic Insights into Cellular Uptake of Biomimetic Dinitrosyl Iron Complexes and Intracellular Delivery of NO for Activation of Cytoprotective HO-1” (JACS Au, 2024)
